For one experiment, the system named is ryegrass, Italian. As to the kind of experiment: Test E preemergence. The settings on record: scale 0 to 100. It counts as in vivo, Lolium multiflorum. The source says:
(§1) Seeds of plant species selected from corn (Zea mays), soybean (Glycine max), lambsquarters (Chenopodium album), poinsettia, wild (wild poinsettia, Euphorbia heterophylla), pigweed, palmer (palmer pigweed, Amaranthus palmeri), waterhemp (common waterhemp, Amaranthus rudis), surinam grass (Brachiaria decumbens), crabgrass, large (large crabgrass, Digitaria sanguinalis), crabgrass, Brazilian (Brazilian crabgrass, Digitaria horizontalis), panicum, fall (fall panicum, Panicum dichotomiflorum), foxtail, giant (giant foxtail, Setaria faberii), foxtail, green (green foxtail, Setaria viridis), goosegrass (Eleusine indica), johnsongrass (Sorghum halepense), ragweed (common ragweed, Ambrosia elatior), barnyardgrass (Echinochloa crus-galli), sandbur (southern sandbur, Cenchrus echinatus), arrowleaf sida (Sida rhombifolia), ryegrass, Italian (Italian ryegrass, Lolium multiflorum), dayflower, VA (Virginia dayflower, Commelina virginica), field bindweed (Convolvulus arvensis), cocklebur (common cocklebur, Xanthium strumarium), morningglory (Ipomoea coccinea), nightshade (eastern black nightshade, Solanum ptycanthum), kochia (Kochia scoparia), nutsedge, yellow (yellow nutsedge, Cyperus esculentus), smartweed (ladysthumb smartweed, Polygonum persicaria), velvetleaf (Abutilon theophrasti), horseweed (Conyza canadensis), and beggarticks (hairy beggarticks, Bidens pilosa), were planted into a silt loam soil and treated preemergence with test chemicals formulated in a non-phytotoxic solvent mixture which included a surfactant.
(§2) At the same time, plants from these crop and weed species and also waterhemp_RES1, (ALS & Triazine resistant common waterhemp, Amaranthus rudis), and waterhemp_RES2, (ALS & HPPD resistant common waterhemp, Amaranthus rudis) were planted in pots containing Sunshine Redi-Earth® planting medium comprising spaghnum peat moss, vermiculite, starter nutrients and dolomitic limestone were treated with postemergence applications of test chemicals formulated in the same manner. Plants ranged in height from 2 to 18 cm for postemergence treatments (1- to 4-leaf stage). Treated plants and controls were maintained in a greenhouse for 14 to 21 d, after which time all species were compared to controls and visually evaluated. Plant response ratings, summarized in Table E, are based on a scale of 0 to 100 where 0 is no effect and 100 is complete control. A dash (-) response means no test result.

In experiment [1] the test system is johnsongrass. Kind of experiment: Test C preemergence. It counts as in vivo, Sorghum halepense. To be noted: for Plant response rating (scale of 0 to 100 where 0 is no effect and 100 is complete control): Johnsongrass, preemergence; for Johnsongrass plant response rating (0 to 100): Preemergence, visual rating after 13 to 15 d. The source says:
Seeds of plant species selected from blackgrass (Alopecurus myosuroides), ryegrass, Italian (Italian ryegrass, Lolium multiflorum), wheat (winter wheat, Triticum aestivum), galium (catchweed bedstraw, Galium aparine), corn (Zea mays), crabgrass, large (large crabgrass, Digitaria sanguinalis), foxtail, giant, (giant foxtail, Setaria faberii), johnsongrass (Sorghum halepense), lambsquarters (Chenopodium album), morningglory (Ipomoea coccinea), nutsedge, yellow (yellow nutsedge, Cyperus esculentus), pigweed (Amaranthus retroflexus), ragweed (common ragweed, Ambrosia elatior), soybean (Glycine max), barnyardgrass (Echinochloa crus-galli), oilseed rape (Brassica napus), waterhemp (common waterhemp, Amaranthus rudis), and velvetleaf (Abutilon theophrasti) were planted into a blend of loam soil and sand and treated preemergence with test chemicals formulated in a non-phytotoxic solvent mixture which included a surfactant. At the same time, plants selected from these crop and weed species and also chickweed (common chickweed, Stellaria media), oat, wild (wild oat, Avena fatua), and kochia (Kochia scoparia), were planted in pots containing Sunshine Redi-Earth® planting medium comprising spaghnum peat moss, vermiculite, starter nutrients and dolomitic limestone and treated with postemergence applications of test chemicals formulated in the same manner. Plants ranged in height from 2 to 18 cm (1- to 4-leaf stage) for postemergence treatments. […] A dash (-) response means no test result.

The next experiment deals with sandbur. As to the kind of experiment: Test E preemergence. It counts as in vivo, Cenchrus echinatus. To be noted: scale 0 to 100.
Description: as §1, §2

The next experiment deals with goosegrass. As to the kind of experiment: Test E preemergence. It counts as in vivo, Eleusine indica. The settings on record: scale 0 to 100.
Description: as §1, §2

The next experiment relates to arrowleaf sida. Kind of experiment: Test E preemergence. It counts as in vivo, Sida rhombifolia. The settings on record: scale 0 to 100.
Description: as §1, §2

Another experiment relates to corn. Kind of experiment: Test E preemergence. It counts as in vivo, Zea mays. To be noted: scale 0 to 100.
Description: as §1, §2

Another experiment deals with panicum, fall. As to the kind of experiment: Test E preemergence. It counts as in vivo, Panicum dichotomiflorum. The settings on record: scale 0 to 100.
Description: as §1, §2

A further experiment deals with crabgrass, Brazilian. As to the kind of experiment: Test E preemergence. The settings on record: Brazil, scale 0 to 100. It counts as in vivo, Digitaria horizontalis.
Description: as §1, §2

For experiment [2], the system named is johnsongrass. As to the kind of experiment: Test E preemergence. It counts as in vivo, Sorghum halepense. The settings on record: scale 0 to 100.
Description: as §1, §2

The test system of a further experiment is poinsettia, wild. Kind of experiment: Test E preemergence. To be noted: scale 0 to 100. It counts as in vivo, Euphorbia heterophylla.
Description: as §1, §2

Another experiment has as its system foxtail, giant. Kind of experiment: Test E preemergence. The settings on record: scale 0 to 100. It counts as in vivo, Setaria faberii.
Description: as §1, §2

On to `CCCc1nc(-c2ccc(F)cc2)nn1Cc1ccnc(C(F)(F)F)c1` [Compound 6, 4-[[3-(4-fluorophenyl)-5-propyl-1H-1,2,4-triazol-1-yl]methyl]-2-(trifluoromethyl)pyridine], for which the Plant response rating in the experiment with ryegrass, Italian (16 g ai/ha) was 10; in the experiment with ryegrass, Italian (31 g ai/ha), 40; in the experiment with ryegrass, Italian (62 g ai/ha), 50; in the experiment on ryegrass, Italian (125 g ai/ha), 70; with ryegrass, Italian (250 g ai/ha), 80; in the experiment with sandbur (16 g ai/ha), 10. For the same compound, the Plant response rating amounted to 40 with sandbur (31 g ai/ha); 50 with sandbur (62 g ai/ha); 70 in the experiment with sandbur (125 g ai/ha); 80 in the experiment with sandbur (250 g ai/ha); 15 with goosegrass (16 g ai/ha); 50 in the experiment with goosegrass (31 g ai/ha). The Plant response rating in the experiment with goosegrass (62 g ai/ha) is given as 50; in the experiment with goosegrass (125 g ai/ha), 75; with goosegrass (250 g ai/ha), 100; in the experiment with arrowleaf sida (16 g ai/ha), 0; with arrowleaf sida (31 g ai/ha), 0; in the experiment with arrowleaf sida (62 g ai/ha), 10. For the same compound, the Plant response rating in the experiment on arrowleaf sida (125 g ai/ha) stood at 30; in the experiment on arrowleaf sida (250 g ai/ha) it was 70; with corn (16 g ai/ha), 0; in the experiment on corn (31 g ai/ha), 15; with corn (62 g ai/ha), 30; in the experiment with corn (125 g ai/ha), 50. The Plant response rating in the experiment on corn (250 g ai/ha) is recorded as 60; in the experiment with panicum, fall (31 g ai/ha), 20; in the experiment on panicum, fall (62 g ai/ha), 35; in the experiment with panicum, fall (125 g ai/ha) it was 95; in the experiment on panicum, fall (250 g ai/ha), 100; in the experiment with crabgrass, Brazilian (16 g ai/ha) it was 75. For the same compound, the Plant response rating with crabgrass, Brazilian (31 g ai/ha) is reported as 80; in the experiment on crabgrass, Brazilian (62 g ai/ha) it was 100; with crabgrass, Brazilian (125 g ai/ha), 100; with crabgrass, Brazilian (250 g ai/ha), 100; in the experiment with johnsongrass [2] (31 g ai/ha), 40; in the experiment on johnsongrass [2] (62 g ai/ha), 50. Further, the Plant response rating in the experiment on johnsongrass [2] (125 g ai/ha) is reported as 80; with johnsongrass [2] (250 g ai/ha), 100; in the experiment with poinsettia, wild (16 g ai/ha), 15; in the experiment with poinsettia, wild (31 g ai/ha) it was 30; with poinsettia, wild (62 g ai/ha), 50; with poinsettia, wild (125 g ai/ha), 50. Besides, the Plant response rating in the experiment on poinsettia, wild (250 g ai/ha) is listed as 95; with foxtail, giant (16 g ai/ha), 50; in the experiment on foxtail, giant (62 g ai/ha), 60; in the experiment with foxtail, giant (125 g ai/ha), 95; with foxtail, giant (250 g ai/ha), 100. For the same compound, the “Plant response rating (scale of 0 to 100 where 0 is no effect and 100 is complete control)” value is given as 85 with johnsongrass [1] (125 g ai/ha) and 100 with johnsongrass [1] (250 g ai/ha). Besides, the “Johnsongrass plant response rating (0 to 100)” value in the experiment with johnsongrass [1] (31 g ai/ha) is given as 60; in the experiment with johnsongrass [1] (62 g ai/ha), 75.

Take `CCOc1nc(-c2ccc(F)cc2)nn1Cc1ccnc(C(F)(F)F)c1` [Compound 8, 4-[[5-ethoxy-3-(4-fluorophenyl)-1H-1,2,4-triazol-1-yl]methyl]-2-(trifluoromethyl)pyridine]: the Plant response rating in the experiment with ryegrass, Italian (62 g ai/ha) was determined as 65; in the experiment with ryegrass, Italian (125 g ai/ha), 100; in the experiment on sandbur (62 g ai/ha), 60; in the experiment with sandbur (125 g ai/ha), 98; in the experiment on goosegrass (62 g ai/ha), 100; with goosegrass (125 g ai/ha), 100. The Plant response rating in the experiment on arrowleaf sida (62 g ai/ha) is 65; with arrowleaf sida (125 g ai/ha), 98; in the experiment with corn (62 g ai/ha) it was 25; in the experiment on corn (125 g ai/ha), 65; with panicum, fall (62 g ai/ha) it was 100; in the experiment with panicum, fall (125 g ai/ha), 100. The Plant response rating in the experiment on crabgrass, Brazilian (62 g ai/ha) came to 100; in the experiment on crabgrass, Brazilian (125 g ai/ha), 100; with johnsongrass [2] (62 g ai/ha) it was 65; with johnsongrass [2] (125 g ai/ha), 100; with poinsettia, wild (62 g ai/ha), 70; with poinsettia, wild (125 g ai/ha), 95. The Plant response rating with foxtail, giant (62 g ai/ha) was 100; with foxtail, giant (125 g ai/ha), 100. The “Plant response rating (scale of 0 to 100 where 0 is no effect and 100 is complete control)” value in the experiment with johnsongrass [1] (125 g ai/ha) was 98; with johnsongrass [1] (250 g ai/ha), 100. Moreover, the “Johnsongrass plant response rating (0 to 100)” value came to 85 in the experiment on johnsongrass [1] (31 g ai/ha) and 98 with johnsongrass [1] (62 g ai/ha).

With `COc1nc(-c2ccc(F)cc2)nn1Cc1ccnc(C(F)(F)F)c1` [Compound 9, 4-[[3-(4-fluorophenyl)-5-methoxy-1H-1,2,4-triazol-1-yl]methyl]-2-(trifluoromethyl)pyridine], the results for the “Plant response rating (scale of 0 to 100 where 0 is no effect and 100 is complete control)” value in the experiment with johnsongrass [1] (125 g ai/ha) and in the experiment on johnsongrass [1] (250 g ai/ha) were 65 and 80, respectively. In addition, the “Johnsongrass plant response rating (0 to 100)” value in the experiment with johnsongrass [1] (31 g ai/ha) is given as 5; in the experiment with johnsongrass [1] (62 g ai/ha), 20.

With `FC(F)(F)COc1nc(-c2ccccc2)nn1Cc1ccnc(C(F)(F)F)c1` [Compound 24], the “Plant response rating (scale of 0 to 100 where 0 is no effect and 100 is complete control)” value in the experiment with johnsongrass [1] (125 g ai/ha) is recorded as 55; with johnsongrass [1] (250 g ai/ha), 85. Further, the results for the “Johnsongrass plant response rating (0 to 100)” value in the experiment with johnsongrass [1] (31 g ai/ha) and with johnsongrass [1] (62 g ai/ha) were 10 and 40, respectively.

On to `FC(F)(F)COc1nc(-c2ccc(Cl)cc2)nn1Cc1ccnc(C(F)(F)F)c1` [Compound 31], for which the results for the “Plant response rating (scale of 0 to 100 where 0 is no effect and 100 is complete control)” value in the experiment on johnsongrass [1] (125 g ai/ha) and in the experiment with johnsongrass [1] (250 g ai/ha) were 85 and 95, respectively. The “Johnsongrass plant response rating (0 to 100)” value was determined as 75 in the experiment on johnsongrass [1] (31 g ai/ha) and 80 with johnsongrass [1] (62 g ai/ha).

Consider `COc1nc(-c2ccccc2)nn1Cc1ccnc(C(F)(F)F)c1` [Compound 32], for which the “Plant response rating (scale of 0 to 100 where 0 is no effect and 100 is complete control)” value in the experiment with johnsongrass [1] (125 g ai/ha) turned out to be 30; in the experiment on johnsongrass [1] (250 g ai/ha), 60. Also, the “Johnsongrass plant response rating (0 to 100)” value with johnsongrass [1] (31 g ai/ha) and in the experiment on johnsongrass [1] (62 g ai/ha) was 0 in each case.

On to `CCOc1nc(-c2ccc(C(F)(F)F)cc2)nn1Cc1ccnc(C(F)(F)F)c1` [Compound 35, 4-[[5-ethoxy-3-[4-(trifluoromethyl)phenyl]-1H-1,2,4-triazole-1-yl]methyl]-2-(trifluoromethyl)pyridine], for which the “Plant response rating (scale of 0 to 100 where 0 is no effect and 100 is complete control)” value in the experiment on johnsongrass [1] (125 g ai/ha) worked out at 95; in the experiment with johnsongrass [1] (250 g ai/ha), 98. In addition, the “Johnsongrass plant response rating (0 to 100)” value in the experiment on johnsongrass [1] (31 g ai/ha) came out at 90; in the experiment on johnsongrass [1] (62 g ai/ha), 95.

These data come from patent publication US10681909B2, “Herbicidal triazoles” (FMC Corporation, priority 2014, dated 2020).
